Data published in PMC6232370, “Metabolism and Bioactivation of Corynoline With Characterization of the Glutathione/Cysteine Conjugate and Evaluation of Its Hepatotoxicity in Mice” (Frontiers in Pharmacology, 2018).

Tests used:
[1] = Tissue distribution of CRL in mice; format: in vivo; conditions: 250 mg/kg intragastric
Description: Thirty BALB/c male mice were fasted overnight but allowed access to water before drug administration. Five groups of mice (six mice per group) were intragastric administered a single dose of 250 mg/kg CRL. The mice in five groups were euthanized by decapitation at pre-dose, 0.5, 2, 4, and 8 h after dosing, respectively. Tissues including heart, liver, spleen, lung, kidney, and brain were dissected and washed with saline, then were blotted with filter paper and weighed accurately. The tissue samples were homogenized in ice-cold saline (1:3, w/v, g/mL). These tissue homogenates were then stored at −20°C and allowed to thaw at room temperature and vortex-mixed before processing. A 200 μL tissue sample was mixed with 5 μL IS solution (donepezil, 500 ng/mL). The mixture was deproteinized with 800 μL of acetonitrile, vortexed for 5 min, and then centrifuged at 17,000 × g for 10 min. An aliquot of 5 μL supernatant was then used for quantifying the content of CRL in each tissue by the LC-MS/MS.

[2] = tested on: human A549, SK-OV-3, SK-MEL-2, and HCT15 tumor cells; parameters: method as in Choi et al. (2007); conditions: ref Choi et al. (2007), read-out: 50% growth inhibition values; cited from earlier work
BALB/c male mice = test: Hepatotoxicity study in mice; format: in vivo
Description: Thirty-six BALB/c male mice were randomly divided into four groups (nine animals per group) including control group, low (125 mg/kg), middle (250 mg/kg), and high (500 mg/kg) three dosages group. CRL was dissolved firstly in DMSO and then prepared in 0.5% carboxymethyl cellulose sodium (CMC-Na) to make a suspension of 10, 20, and 30 mg/mL and the final concentration of DMSO in the suspension was no more than 5%. CRL was administered to the mice in different groups through oral gavage. Mice in control group were given equal volume 0.5% CMC-Na (contained 5% DMSO) solution with high dosage group. Blood samples were drawn from the orbital vein using cannulation under anesthesia at 24 h after oral administration. After centrifugation at 2,000 g for 15 min, the serum samples were stored at −20°C until analysis. Then mice were euthanized by decapitation after blood collection. Samples of liver were obtained and one part of which was fixed in 10% formaldehyde for observing histological change with optical microscope. The content of ALT and AST in mice serum was detected according the operation instruction of the kit.

[3] = mice, 24 h after oral administration of 125, 250, and 500 mg/kg, P > 0.05

CN1Cc2c(ccc3c2OCO3)[C@@]2(C)[C@@H](O)Cc3cc4c(cc3[C@@H]12)OCO4 [CRL, Corynoline]
Blood–brain barrier passage [1]: could traverse the blood–brain barrier
Highest concentration level in brain ([1]; single dose, mean ± SD): 40.53 ± 20.50 µg/g
Highest concentration level in kidney ([1]; single dose, mean ± SD): 68.73 ± 46.89 µg/g
Highest concentration level in liver ([1]; single dose, mean ± SD): 92.91 ± 65.11 µg/g
Highest concentration level in lung ([1]; single dose, mean ± SD): 27.27 ± 22.17 µg/g
Highest concentration level in spleen ([1]; single dose, mean ± SD): 25.22 ± 18.67 µg/g
concentration at 2 h ([1]; male, BALB/c, mouse, plasma, oral, at 2 h post dosing, mean ± SD): 18400 ± 14200 ng/mL
Tmax ([1]; male, BALB/c, mouse, tissues (heart, liver, spleen, lung, kidney, brain), po, tissues, post dosing, read-out: Time to reach the maximum concentration): 2 h
IC50 [2]: 5.27 to 6.14 µM
Histopathological examination of the liver (BALB/c male mice; mice, 125, 250, and 500 mg/kg oral, 24 h): no pathological changes
ALT in serum and livers compared with the control group (BALB/c male mice; [3]): not significantly different
AST in serum and livers compared with the control group (BALB/c male mice; [3]): not significantly different
Abnormal behaviors compared with control group (BALB/c male mice; mice, drug treatment groups 125–500 mg/kg oral, at about 10 min after administration, more pronounced with increasing dosage): lying on the bedding and shivering
Body temperature of most mice (BALB/c male mice; mice, drug treatment groups 125–500 mg/kg oral, more pronounced with increasing dosage): lower than normal
Hepatotoxicity / acute liver injury (BALB/c male mice; mice, experimental dosage 125–500 mg/kg oral): no obvious hepatotoxicity
Dead mice after drug administration (all dosage groups) (BALB/c male mice; mouse, in vivo): three of them were dead
Dead mice in high dosage group (BALB/c male mice; mouse, in vivo): two mice
Dead mice in middle dosage group (BALB/c male mice; mouse, in vivo): one mouse
